Experiment: recombinant UMI read abundance after kanamycin selection (control-corrected) (log10(CPM+1)); higher = more efficient recombination; extreme values may be limits of the assay; sequences stand for … in AGTGCAGAGAAAATCGGCCAGTTTTCTCTGCCTGCAGTCCGCATGCCGTGGGACCCCTTGGGTTCTAACCTGTTGCCTAGATTTATGCAGCGGACTGCCTTTCTCCCAAAGTGATAAACCGG…AGGTTGGTTTCACT; site = the 11-nt donor
Method in brief: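 Values, expressed as log10(CPM+1), derive from recombinant UMI counts converted to CPM, averaged across replicates and scaled by control-derived factors. Plating was with IPTG (0.07 mM) plus kanamycin or unselected, two replicates each. The screen pooled donor and donor-binding-loop pairs for the IS621 bridge recombinase in Escherichia coli.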
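Also: IS621 bridge recombinase in Escherichia coli cells against a fixed T5 target plasmid.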

Sequence | recombinant UMI read abundance (log10)
GTGAAGGCATGGACCGGTTTTCCCGGTAATCCGTATTTGTG (site GTGCAGGCTCA) | 0.498
GTGAAGGCATGGACCGGTTTTCCCGGTAATCCGTATTTGTG (site GTGGAGGCTCA) | 1.02
GTGAAGGCATGGACCGGTTTTCCCGGTAATCCGTATTTGTG (site GTGTAGGCTCA) | 0.977
GTGAATGCATGGACCGGTTTTCCCGGTAATCCGTATTTGGT (site GTGAATGCTAC) | 2.73
GTGAATGCATGGACCGGTTTTCCCGGTAATCCGTATTTGGT (site GTGCATGCTAC) | 0.318
GTGAATGCATGGACCGGTTTTCCCGGTAATCCGTATTTGGT (site GTGGATGCTAC) | 1.94
GTGAATGCATGGACCGGTTTTCCCGGTAATCCGTATTTGGT (site GTGTATGCTAC) | 1.4
GTGACGCCATGGACCGGTTTTCCCGGTAATCCGTATTTGTG (site GTGACGCCTCA) | 0
GTGAGTACATGGACCGGTTTTCCCGGTAATCCGTATTTGAG (site GTGAGTACTCT) | 1.75
GTGAGTGCATGGACCGGTTTTCCCGGTAATCCGTATTTGAG (site GTGAGTGCTCT) | 2.12
GTGATAACATGGACCGGTTTTCCCGGTAATCCGTATTTGGC (site GTGATAACTGC) | 2.59
GTGATGACATGGACCGGTTTTCCCGGTAATCCGTATTTGGC (site GTGATGACTGC) | 2.09
GTGATGCCATGGACCGGTTTTCCCGGTAATCCGTATTTGAT (site GTGATGCCTAT) | 1.41
GTGATGTCATGGACCGGTTTTCCCGGTAATCCGTATTTGGA (site GTGATGTCTTC) | 2.57
GTGCACGCATGGACCGGTTTTCCCGGTAATCCGTATTTGGT (site GTGCAAGCTAC) | 0.553
GTGCACGCATGGACCGGTTTTCCCGGTAATCCGTATTTGGT (site GTGCACGCTAC) | 1.75
GTGCACGCATGGACCGGTTTTCCCGGTAATCCGTATTTGGT (site GTGCAGGCTAC) | 0.00611
GTGCACGCATGGACCGGTTTTCCCGGTAATCCGTATTTGGT (site GTGCATGCTAC) | 0.0143
GTGCGAGCATGGACCGGTTTTCCCGGTAATCCGTATTTGCA (site GTACGAGCTTG) | 2.68
GTGCGAGCATGGACCGGTTTTCCCGGTAATCCGTATTTGCA (site GTCCGAGCTTG) | 0.724
GTGCGAGCATGGACCGGTTTTCCCGGTAATCCGTATTTGCA (site GTGCGAGCTTG) | 2.81
GTGCGAGCATGGACCGGTTTTCCCGGTAATCCGTATTTGCA (site GTTCGAGCTTG) | 1.48
GTGCGTACATGGACCGGTTTTCCCGGTAATCCGTATTTGCT (site GTGCGTACTAG) | 2.23
GTGCGTCCATGGACCGGTTTTCCCGGTAATCCGTATTTGTG (site GTGCGTCCTCA) | 0.0594
GTGCTACCATGGACCGGTTTTCCCGGTAATCCGTATTTGGG (site GTGCTACCTCC) | 0.0107

Sequence | recombinant UMI read abundance (log10)
GTGGAAGCATGGACCGGTTTTCCCGGTAATCCGTATTTGAA (site GTGGAAGCTTT) | 2.55
GTGGAGTCATGGACCGGTTTTCCCGGTAATCCGTATTTGTG (site GTGGAGACTCA) | 1.34
GTGGAGTCATGGACCGGTTTTCCCGGTAATCCGTATTTGTG (site GTGGAGCCTCA) | 0.572
GTGGAGTCATGGACCGGTTTTCCCGGTAATCCGTATTTGTG (site GTGGAGGCTCA) | 0.00513
GTGGAGTCATGGACCGGTTTTCCCGGTAATCCGTATTTGTG (site GTGGAGTCTCA) | 2.76
GTGGCAACATGGACCGGTTTTCCCGGTAATCCGTATTTGCG (site GTGGCAACTCG) | 1.03
GTGGCAACATGGACCGGTTTTCCCGGTAATCCGTATTTGTA (site GTGGCAACTTA) | 0.85
GTGGGCCCATGGACCGGTTTTCCCGGTAATCCGTATTTGTC (site GTGGGCCCTGA) | 0.429
GTGGGCGCATGGACCGGTTTTCCCGGTAATCCGTATTTGGG (site GTGGGCGCTCC) | 0.22
GTGTACCCATGGACCGGTTTTCCCGGTAATCCGTATTTGGC (site GTGTACCCTGC) | 0.705
GTGTACGCATGGACCGGTTTTCCCGGTAATCCGTATTTGTC (site GTGTACGCTGA) | 2.81
GTGTTGACATGGACCGGTTTTCCCGGTAATCCGTATTTGTG (site GTGTTGACTCA) | 1.33
GTTAAAGCATGGACCGGTTTTCCCGGTAATCCGTATTTGTA (site GTTAAAGCTTA) | 2.59
GTTAACGCATGGACCGGTTTTCCCGGTAATCCGTATTTGGA (site GTTAACGCTTC) | 0.944
GTTACAACATGGACCGGTTTTCCCGGTAATCCGTATTTGAT (site GTTACAACTAT) | 0.492
GTTACGTCATGGACCGGTTTTCCCGGTAATCCGTATTTGTT (site GATACGTCTAA) | 0.0159
GTTACGTCATGGACCGGTTTTCCCGGTAATCCGTATTTGTT (site GCTACGTCTAA) | 0.00335
GTTACGTCATGGACCGGTTTTCCCGGTAATCCGTATTTGTT (site GGTACGTCTAA) | 0.00806
GTTACGTCATGGACCGGTTTTCCCGGTAATCCGTATTTGTT (site GTTACGTCTAA) | 0.504
GTTAGAACATGGACCGGTTTTCCCGGTAATCCGTATTTGGC (site ATTAGAACTGC) | 0
GTTAGAACATGGACCGGTTTTCCCGGTAATCCGTATTTGGC (site CTTAGAACTGC) | 0
GTTAGAACATGGACCGGTTTTCCCGGTAATCCGTATTTGGC (site GATAGAACTGC) | 0
GTTAGAACATGGACCGGTTTTCCCGGTAATCCGTATTTGGC (site GCTAGAACTGC) | 0
GTTAGAACATGGACCGGTTTTCCCGGTAATCCGTATTTGGC (site GGTAGAACTGC) | 0
GTTAGAACATGGACCGGTTTTCCCGGTAATCCGTATTTGGC (site GTAAGAACTGC) | 0

Sequence | recombinant UMI read abundance (log10)
GTTAGAACATGGACCGGTTTTCCCGGTAATCCGTATTTGGC (site GTCAGAACTGC) | 0
GTTAGAACATGGACCGGTTTTCCCGGTAATCCGTATTTGGC (site GTGAGAACTGC) | 0
GTTAGAACATGGACCGGTTTTCCCGGTAATCCGTATTTGGC (site GTTAAAACTGC) | 0
GTTAGAACATGGACCGGTTTTCCCGGTAATCCGTATTTGGC (site GTTACAACTGC) | 0
GTTAGAACATGGACCGGTTTTCCCGGTAATCCGTATTTGGC (site GTTAGAACTAC) | 0.00468
GTTAGAACATGGACCGGTTTTCCCGGTAATCCGTATTTGGC (site GTTAGAACTCC) | 0.0522
GTTAGAACATGGACCGGTTTTCCCGGTAATCCGTATTTGGC (site GTTAGAACTGA) | 0
GTTAGAACATGGACCGGTTTTCCCGGTAATCCGTATTTGGC (site GTTAGAACTGC) | 1.59
GTTAGAACATGGACCGGTTTTCCCGGTAATCCGTATTTGGC (site GTTAGAACTGG) | 0
GTTAGAACATGGACCGGTTTTCCCGGTAATCCGTATTTGGC (site GTTAGAACTGT) | 0
GTTAGAACATGGACCGGTTTTCCCGGTAATCCGTATTTGGC (site GTTAGAACTTC) | 0
GTTAGAACATGGACCGGTTTTCCCGGTAATCCGTATTTGGC (site GTTAGACCTGC) | 0
GTTAGAACATGGACCGGTTTTCCCGGTAATCCGTATTTGGC (site GTTAGAGCTGC) | 0.0184
GTTAGAACATGGACCGGTTTTCCCGGTAATCCGTATTTGGC (site GTTAGATCTGC) | 0.83
GTTAGAACATGGACCGGTTTTCCCGGTAATCCGTATTTGGC (site GTTAGCACTGC) | 0.506
GTTAGAACATGGACCGGTTTTCCCGGTAATCCGTATTTGGC (site GTTAGGACTGC) | 0.0154
GTTAGAACATGGACCGGTTTTCCCGGTAATCCGTATTTGGC (site GTTAGTACTGC) | 0
GTTAGAACATGGACCGGTTTTCCCGGTAATCCGTATTTGGC (site GTTATAACTGC) | 1.54
GTTAGAACATGGACCGGTTTTCCCGGTAATCCGTATTTGGC (site GTTCGAACTGC) | 0
GTTAGAACATGGACCGGTTTTCCCGGTAATCCGTATTTGGC (site GTTGGAACTGC) | 0.696
GTTAGAACATGGACCGGTTTTCCCGGTAATCCGTATTTGGC (site GTTTGAACTGC) | 0
GTTAGAACATGGACCGGTTTTCCCGGTAATCCGTATTTGGC (site TTTAGAACTGC) | 0
GTTAGAACATGGACCGGTTTTCCCGGTAATCCGTATTTGGT (site GTTAGAACTAC) | 0.908
GTTAGAACATGGACCGGTTTTCCCGGTAATCCGTATTTGGT (site GTTAGAACTCC) | 0.0129
GTTAGAACATGGACCGGTTTTCCCGGTAATCCGTATTTGGT (site GTTAGAACTGC) | 0
